Legend:
Type in all cases: in vivo
[1] = tested on: velvetleaf (Abutilon theophrasti); assay: Example 19, Procedure II: Herbicide No. 1 + ERADICANE EXTRA with added antidotes
Description: (§1) Containers were filled and compacted with a fumigated silt loam top soil to a depth of about 1.3 cm from the top of the container. A first container was designated as an untreated control, a second container was designated as a herbicide control, and a third container was designated as a herbicide + antidote test container. Each of the containers was seeded with a crop species. A measured amount of herbicide dispersed or dissolved in acetone was applied to a measured quantity of soil. To this same quantity of soil treated with herbicide, there was added a measured amount of antidote dispersed or dissolved in acetone. The quantity of soil treated with the herbicide and antidote was thoroughly mixed to incorporate the herbicide and antidote in the soil uniformly. The seed bed in the third container of soil was covered with the soil treated with the herbicide and antidote and the container was leveled. For each test series, the seed beds of the first and second containers were likewise covered by soil layers. the cover layer of the first container was not treated with herbicide or antidote.
(§2) The containers were then placed on a bench in a greenhouse and sub-irrigated as required for the duration of the test. […] Plant response is measured in terms of percent injury. Antidote efficacy is indicated as the difference in plant injury by the herbicide(s) without the antidote and with the antidote.
(§3) This procedure is the same as Procedure I, but modified in the manner that after incorporation of the chemicals (herbicide and antidote) the containers with the covered seedbed were treated with an initial overhead irrigation equivalent to 0.6 cm rainfall, then subsequently sub-irrigated as required on greenhouse benches.
(§4) In the series of greenhouse tests described below, for routine screening purposes the herbicide/antidote compositions were tested in crop/weed combinations involving corn as the crop and either or both of the weeds barnyardgrass (Echinochloa crusgalli), a monocotyledonous weed, and velvetleaf (Abutilon theophrasti), a dicotyledonous weed. In the tables below, these weeds are indicated by the symbols "BYG" and "VL", respectively.
(§5) In the test reported in this example, the herbicidal composition was similar to that used in Example 16 in that Herbicide No. 1 was combined with EPTC (Herbicide No. 4) as a co-herbicide and the antidotes included Nos. 1, 2, 7, 13 and 15. However, in this test the EPTC was introduced as a formulation of ERADICANE (EPTC + the antidote R-25788, i.e., Antidote No. 1) at an application rate of 8.96 kg/ha. Thus, in this test two antidotes were present, viz. R-25788 and one of the auxilliary antidotes, No. 2, 13 and 15.
(§6) The test reported in this example was performed in the same manner and with the same antidotes used in Example 18, the only difference being the substitution of the commercial herbicidal product ERADICANE® EXTRA for ERADICANE®. ERADICANE EXTRA is a formulation containing both an antidote, i.e., R-29148 (Antidote No. 5 herein), and an extender, dietholate.

[2] = tested on: barnyardgrass (Echinochloa crusgalli); assay: as above
Description: as §1, §2, §3, §4, §5, §6

[3] = tested on: velvetleaf (Abutilon theophrasti); assay: Example 21, Procedure II: Herbicide No. 1 + SUTAN PLUS (butylate + antidote) with antidotes
Description: as §1, §2, §3, §4
(§7) In this example, tests were conducted as in the preceding Examples 18-20, except here the co-herbicidal component was SUTAN® PLUS, a commercial product comprising as the active herbicidal ingredient the compound butylate (Herbicide No. 10) and an antidote […] (Antidote No. 1). Again, the antidotal compounds herein were Nos. 1, 2, 7, 13 and 15. Procedure II was used.

[4] = tested on: barnyardgrass (Echinochloa crusgalli); assay: as above
Description: as §1, §2, §3, §4, §7

[5] = tested on: velvetleaf (Abutilon theophrasti); assay: Example 7, Procedure II: Herbicide No. 1 + metolachlor (No. 12) with antidotes
Description: as §1, §2, §3, §4
(§8) In this example, Procedure II described above was followed. The data from the tests in this example is shown in Table 6 and represents averages of duplicate replications.
(§9) The tests in this example followed the same procedure and antidotes used in Example 6. However, Herbicide No. 12 (metolachlor) was used as the co-herbicide with Herbicide No. 1.

[6] = tested on: barnyardgrass (Echinochloa crusgalli); assay: as above
Description: as §1, §2, §3, §4, §8, §9

[7] = tested on: velvetleaf (Abutilon theophrasti); assay: Example 18, Procedure II: Herbicide No. 1 + ERADICANE (EPTC + R-25788) with auxiliary antidotes
Description: as §1, §2, §3, §4, §5
(§10) Test procedures were those of Procedure II above.

[8] = tested on: barnyardgrass (Echinochloa crusgalli); assay: as above
Description: as §1, §2, §3, §4, §5, §10

corn [9] = assay: Example 8, Procedure II: Herbicide No. 1 + butachlor (No. 9) with antidotes
Description: as §1, §2, §3
In this test, the efficacy of the same five antidotes used in Examples 6 and 7 was investigated in compositions comprising Herbicide No. 1 and as a co-herbicide, butachlor (Herbicide No. 9), active ingredient in MACHETE® herbicide, a leading commercial rice herbicide. The test procedure used in this example was the same as that in Examples 6 and 7.

corn [10] = assay: Example 9, Procedure II: Herbicide No. 1 + pretilachlor (No. 13) with antidotes
Description: as §1, §2, §3
In this example the safening effect on a composition comprising Herbicide No. 1 and another leading rice herbicide, i.e., Herbicide No. 13, was investigated using the same antidotes and test procedure described in the preceding example. Herbicide No. 13 is pretilachlor, active ingredient used in the commercial rice herbicides RIFIT®, SOFIT® and SOFIT® SUPER.

[11] = Herbicide No.1 0.56 kg/ha + ERADICANE EXTRA 8.96 kg/ha, antidote 2.24 kg/ha
[12] = Herbicide No.1 0.56 kg/ha + ERADICANE EXTRA 8.96 kg/ha, antidote 8.96 kg/ha
[13] = Herbicide No.1 1.12 kg/ha + ERADICANE EXTRA 8.96 kg/ha, antidote 2.24 kg/ha
[14] = Herbicide No.1 1.12 kg/ha + ERADICANE EXTRA 8.96 kg/ha, antidote 8.96 kg/ha
[15] = Herbicide No.1 0.56 kg/ha + SUTAN + 8.96 kg/ha, antidote 2.24 kg/ha
[16] = Herbicide No.1 0.56 kg/ha + SUTAN + 8.96 kg/ha, antidote 8.96 kg/ha
[17] = Herbicide No.1 1.12 kg/ha + SUTAN + 8.96 kg/ha, antidote 2.24 kg/ha
[18] = Herbicide No.1 1.12 kg/ha + SUTAN + 8.96 kg/ha, antidote 8.96 kg/ha
[19] = Herbicide No.1 0.14 + No.12 3.36 kg/ha + antidote 2.24 kg/ha
[20] = Herbicide No.1 0.14 + No.12 3.36 kg/ha + antidote 8.96 kg/ha
[21] = Herbicide No.1 0.56 + No.12 3.36 kg/ha + antidote 2.24 kg/ha
[22] = Herbicide No.1 0.56 + No.12 3.36 kg/ha + antidote 8.96 kg/ha
[23] = Herbicide No.1 0.56 kg/ha + ERADICANE 8.96 kg/ha, antidote 2.24 kg/ha
[24] = Herbicide No.1 0.56 kg/ha + ERADICANE 8.96 kg/ha, antidote 8.96 kg/ha
[25] = Herbicide No.1 1.12 kg/ha + ERADICANE 8.96 kg/ha, antidote 2.24 kg/ha
[26] = Herbicide No.1 1.12 kg/ha + ERADICANE 8.96 kg/ha, antidote 8.96 kg/ha
[27] = Herbicide No.1 0.14 + No.9 2.24 kg/ha + antidote 2.24 kg/ha
[28] = Herbicide No.1 0.14 + No.9 2.24 kg/ha + antidote 8.96 kg/ha
[29] = Herbicide No.1 0.56 + No.9 2.24 kg/ha + antidote 2.24 kg/ha
[30] = Herbicide No.1 0.56 + No.9 2.24 kg/ha + antidote 8.96 kg/ha
[31] = Herbicide No.1 0.14 + No.12 3.36 kg/ha, no antidote
[32] = Herbicide No.1 0.14 + No.12 3.36 kg/ha, no antidote (second such line, r25)
[33] = Herbicide No.1 0.56 + No.12 3.36 kg/ha, no antidote (second such line, r24)
[34] = Herbicide No.1 0.56 + No.12 (metolachlor) 3.36 kg/ha, no antidote

O=C1OC(=O)c2cccc3cccc1c23 [compound 2]
% Injury VL [1, 11]: 75% | % Injury VL [1, 12]: 75% | % Injury VL [1, 13]: 85% | % Injury VL [1, 14]: 75% | % Injury BYG [2, 11]: 90% | % Injury BYG [2, 12]: 90% | % Injury BYG [2, 13]: 85% | % Injury BYG [2, 14]: 85% | % Injury VL [3, 15]: 55% | % Injury VL [3, 16]: 65% | % Injury VL [3, 17]: 70% | % Injury VL [3, 18]: 70% | % Injury BYG [4, 15]: 5% | % Injury BYG [4, 16]: 10% | % Injury BYG [4, 17]: 45% | % Injury BYG [4, 18]: 5% | % Injury VL [5, 19]: 75% | % Injury VL [5, 20]: 75% | % Injury VL [5, 21]: 80% | % Injury VL [5, 22]: 85% | % Injury BYG [6, 19]: 100% | % Injury BYG [6, 20]: 100% | % Injury BYG [6, 21]: 100% | % Injury BYG [6, 22]: 100% | % Injury VL [7, 23]: 80% | % Injury VL [7, 24]: 93% | % Injury VL [7, 25]: 70% | % Injury VL [7, 26]: 75% | % Injury BYG [8, 23]: 93% | % Injury BYG [8, 24]: 85% | % Injury BYG [8, 25]: 85% | % Injury BYG [8, 26]: 95% | % Injury Corn (corn [9]; [27]): 15% | % Injury Corn (corn [9]; [28]): 15% | % Injury Corn (corn [9]; [29]): 25% | % Injury Corn (corn [9]; [30]): 20%

C=CCN(CC=C)C(=O)C(Cl)Cl [compound 1]
% Injury VL [1, 11]: 70% | % Injury VL [1, 12]: 75% | % Injury VL [1, 13]: 70% | % Injury VL [1, 14]: 85% | % Injury BYG [2, 11]: 90% | % Injury BYG [2, 12]: 90% | % Injury BYG [2, 13]: 90% | % Injury BYG [2, 14]: 95% | % Injury Corn (corn [10]; Herbicide No.1 0.14 kg/ha + Herbicide No.13 2.24 kg/ha, antidote rate 2.24 kg/ha): 0% | % Injury Corn (corn [10]; Herbicide No.1 0.14 kg/ha + Herbicide No.13 2.24 kg/ha, antidote rate 8.96 kg/ha): 0% | % Injury Corn (corn [10]; Herbicide No.1 0.56 kg/ha + Herbicide No.13 2.24 kg/ha, antidote rate 2.24 kg/ha): 5% | % Injury Corn (corn [10]; Herbicide No.1 0.56 kg/ha + Herbicide No.13 2.24 kg/ha, antidote rate 8.96 kg/ha): 10% | % Injury VL [3, 15]: 40% | % Injury VL [3, 16]: 65% | % Injury VL [3, 17]: 65% | % Injury VL [3, 18]: 60% | % Injury BYG [4, 15]: 0% | % Injury BYG [4, 16]: 25% | % Injury BYG [4, 17]: 10% | % Injury BYG [4, 18]: 35% | % Injury VL [5, 19]: 70% | % Injury VL [5, 20]: 75% | % Injury VL [5, 21]: 85% | % Injury VL [5, 22]: 80% | % Injury BYG [6, 19]: 100% | % Injury BYG [6, 20]: 100% | % Injury BYG [6, 21]: 100% | % Injury BYG [6, 22]: 100% | % Injury VL [7, 23]: 85% | % Injury VL [7, 24]: 85% | % Injury VL [7, 25]: 75% | % Injury VL [7, 26]: 75% | % Injury BYG [8, 23]: 90% | % Injury BYG [8, 24]: 90% | % Injury BYG [8, 25]: 90% | % Injury BYG [8, 26]: 85% | % Injury Corn (corn [9]; [27]): 20% | % Injury Corn (corn [9]; [28]): 10% | % Injury Corn (corn [9]; [29]): 20% | % Injury Corn (corn [9]; [30]): 15%

CC1(C)OC(c2ccco2)CN1C(=O)C(Cl)Cl (stereo not shown) [Antidote No. 15, Oxazolidine, 3-(dichloroacetyl)-5-(2-furanyl)-2,2-dimethyl]
safening of corn, assessment in words (corn [10]; Herbicide Nos. 1 and 13, Table 9): commercial-level safening of corn | safening of corn, assessment in words (corn [9]; Herbicide Nos. 1 and 9, Table 8): best safening effect across all four treatments

COC(=O)c1c(Cl)nn(C)c1S(=O)(=O)NC(=O)Nc1nc(OC)cc(OC)n1 [Herbicide No. 1]
injury to corn (corn [10]; Herbicide No. 1 0.56 kg/ha + Herbicide No. 13 2.24 kg/ha in combination, no antidote): 65% | % Injury VL [5, 31]: 70% | % Injury VL [5, 32]: 60% | % Injury VL [5, 33]: 75% | % Injury VL [5, 34]: 85% | % Injury BYG [6, 31]: 100% | % Injury BYG [6, 32]: 35% | % Injury BYG [6, 33]: 75% | % Injury BYG [6, 34]: 100% | % Injury Corn (corn [9]; Herbicide No.1 0.14 + No.9 2.24 kg/ha, no antidote): 25% | % Injury Corn (corn [9]; Herbicide No.1 0.14 kg/ha alone): 10% | % Injury Corn (corn [9]; Herbicide No.1 0.56 + No.9 (butachlor) 2.24 kg/ha, no antidote): 65% | % Injury Corn (corn [9]; Herbicide No.1 0.56 kg/ha alone): 60%

From EP0603240B1, “SAFENING HERBICIDAL PYRAZOLYLSULFONYLUREAS” (priority 1991, dated 1993)
